Test system: yeast tRNA^Phe (RNA, tRNA) GCGGAUUUAGCUCAGUUGGGAGAGCGCCAGACUGAAGAUCUGGAGGUCCUGUGUUCGAUCCACAGAAUUCGCACCA
Test: inhibition of lead(II)-induced cleavage, gel
Details: 10 mM Mg2+, 1 mM NH4+, 0.5 mM Pb2+; 50% inhibition of Pb2+ cleavage; 50 mM Tris-HCl pH 7.5; RNA 2.4 μM

Cc1cc2nc3ccc(N(C)C)cc3[s+]c2cc1N
Ki: 70 ± 20 µM
